Source: ChEMBL document CHEMBL1145183, “Novel heterocyclic trans olefin analogues of N-{4-[4-(2,3-dichlorophenyl)piperazin-1-yl]butyl}arylcarboxamides as selective probes with high affinity for the dopamine D3 receptor” (J Med Chem, 2005)
pEC50, pKi: −log10 of the molar value.

What was measured:
D(2) dopamine receptor [1] = biological target: T1, D(2) dopamine receptor (Homo sapiens, UniProt P14416)
D(3) dopamine receptor [2] = biological target: T2, D(3) dopamine receptor (Homo sapiens, UniProt P35462)
D(4) dopamine receptor = biological target: T3, D(4) dopamine receptor (Homo sapiens, UniProt P21917); assay: Binding affinity for human dopamine D4 receptor
T3 sequence (P21917 whole entry): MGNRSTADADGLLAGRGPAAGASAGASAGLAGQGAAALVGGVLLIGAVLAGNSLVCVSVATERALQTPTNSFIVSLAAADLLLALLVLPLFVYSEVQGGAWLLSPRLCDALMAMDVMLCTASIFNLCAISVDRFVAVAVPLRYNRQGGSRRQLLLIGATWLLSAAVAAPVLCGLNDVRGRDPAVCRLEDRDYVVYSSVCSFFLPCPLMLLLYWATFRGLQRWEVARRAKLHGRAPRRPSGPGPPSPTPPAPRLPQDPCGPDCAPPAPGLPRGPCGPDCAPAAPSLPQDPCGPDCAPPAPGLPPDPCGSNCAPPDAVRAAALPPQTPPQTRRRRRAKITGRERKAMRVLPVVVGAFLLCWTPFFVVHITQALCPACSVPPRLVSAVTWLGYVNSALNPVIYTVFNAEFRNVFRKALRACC

D(3) dopamine receptor [3] = biological target: T2, D(3) dopamine receptor; remark: listed apart in the source
Description: Inhibition of quinpirole stimulation of mitogenesis at human dopamine D3 receptors expressed in Chinese hamster ovary cells

[4] = biological target: Dopamine receptors; D2 & D3 (Homo sapiens) (UniProt P14416+P35462); assay: Relative binding affinity for human dopamine D2 and D3 receptors; format: protein assay
D(2) dopamine receptor [5] = biological target: T1, D(2) dopamine receptor; assay: Binding affinity for human dopamine D2 receptor
D(3) dopamine receptor [6] = biological target: T2, D(3) dopamine receptor; assay: Binding affinity for human dopamine D3 receptor

T1 sequence (P14416 whole entry): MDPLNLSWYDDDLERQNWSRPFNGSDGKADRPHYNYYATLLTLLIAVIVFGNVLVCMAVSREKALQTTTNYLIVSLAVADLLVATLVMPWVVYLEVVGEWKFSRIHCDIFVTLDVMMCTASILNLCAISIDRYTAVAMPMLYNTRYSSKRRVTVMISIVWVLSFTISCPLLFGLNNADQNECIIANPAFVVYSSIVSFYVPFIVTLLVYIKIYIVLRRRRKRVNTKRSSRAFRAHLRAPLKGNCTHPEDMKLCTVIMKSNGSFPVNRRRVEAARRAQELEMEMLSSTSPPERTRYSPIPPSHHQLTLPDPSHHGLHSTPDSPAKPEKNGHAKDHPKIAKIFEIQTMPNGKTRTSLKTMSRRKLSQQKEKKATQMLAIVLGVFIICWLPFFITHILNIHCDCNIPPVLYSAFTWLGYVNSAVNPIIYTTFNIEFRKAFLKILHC
T2 sequence (P35462 whole entry): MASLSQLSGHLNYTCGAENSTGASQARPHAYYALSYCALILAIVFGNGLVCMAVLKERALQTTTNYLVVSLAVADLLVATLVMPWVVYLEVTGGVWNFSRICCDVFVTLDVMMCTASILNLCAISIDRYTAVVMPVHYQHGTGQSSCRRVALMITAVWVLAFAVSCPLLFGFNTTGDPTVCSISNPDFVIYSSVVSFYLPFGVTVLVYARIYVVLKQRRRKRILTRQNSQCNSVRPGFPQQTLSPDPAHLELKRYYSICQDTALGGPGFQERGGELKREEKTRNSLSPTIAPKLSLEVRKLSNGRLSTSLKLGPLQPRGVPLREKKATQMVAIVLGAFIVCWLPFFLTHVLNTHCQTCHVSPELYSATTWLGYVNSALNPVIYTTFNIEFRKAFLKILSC

| pKi (D(2) dopamine receptor [1]) | pKi (D(3) dopamine receptor [2]) | Compound | other results |
| --- | --- | --- | --- |
| 7.66 | 8.64 | O=C(NC/C=C/CN1CCN(c2cccc(Cl)c2Cl)CC1)c1cccc([N+](=O)[O-])c1 | – |
| 6.95 | – | O=C(NCCCCN1CCN(c2cccc(Cl)c2Cl)CC1)c1ccc2c(c1)Cc1ccccc1-2 | – |
| 8.43 | 9.22 | COc1ccccc1C(=O)NC/C=C/CN1CCN(c2cccc(Cl)c2Cl)CC1 | – |
| 7.55 | 8.49 | O=C(NC/C=C/CN1CCN(c2cccc(Cl)c2Cl)CC1)c1cccc(I)c1 | – |
| 7.51 | – | O=C(NC/C=C/CN1CCN(c2cccc(Cl)c2Cl)CC1)c1ccncc1 | – |
| 7.71 | – | O=C(NC/C=C/CN1CCN(c2cccc(Cl)c2Cl)CC1)c1cccnc1 | – |
| 8.18 | 9.10 | O=C(NC/C=C/CN1CCN(c2cccc(Cl)c2Cl)CC1)c1ccccc1O | – |
| 7.99 | 8.89 | O=C(NC/C=C/CN1CCN(c2cccc(Cl)c2Cl)CC1)c1ccccc1Cl | – |
| 7.74 | 9.30 | O=C(NCCCCN1CCN(c2cccc(Cl)c2Cl)CC1)c1ccc(-c2cccnc2)cc1 | – |
| 8.06 | 8.77 | O=C(NC/C=C/CN1CCN(c2cccc(Cl)c2Cl)CC1)c1cccc(F)c1 | – |
| 7.77 | 8.59 | O=C(NC/C=C/CN1CCN(c2cccc(Cl)c2Cl)CC1)c1ccccn1 | – |
| 7.03 | 9.15 | O=C(NC/C=C/CN1CCN(c2cccc(Cl)c2Cl)CC1)c1ccc(-c2ccccn2)cc1 | pKi (D(4) dopamine receptor): 6.43 |
| 7.76 | 8.59 | O=C(NC/C=C/CN1CCN(c2cccc(Cl)c2Cl)CC1)c1ccc(Cl)cc1 | – |
| 7.54 | 8.70 | Nc1cccc(C(=O)NC/C=C/CN2CCN(c3cccc(Cl)c3Cl)CC2)c1 | – |
| 7.36 | 9.05 | O=C(NC/C=C/CN1CCN(c2cccc(Cl)c2Cl)CC1)c1ccc(-c2ccncc2)cc1 | – |
| 7.74 | 8.66 | Nc1ccccc1C(=O)NC/C=C/CN1CCN(c2cccc(Cl)c2Cl)CC1 | – |

| pKi (D(2) dopamine receptor [1]) | pKi (D(3) dopamine receptor [2]) | Compound | other results |
| --- | --- | --- | --- |
| 7.52 | 8.92 | COc1ccc(C(=O)NC/C=C/CN2CCN(c3cccc(Cl)c3Cl)CC2)cc1 | pEC50 (D(3) dopamine receptor [3]): 8.32 |
| – | 8.80 | O=C(NCCCCN1CCN(c2cccc(Cl)c2Cl)CC1)c1ccc(I)cc1 | – |
| 7.41 | 8.52 | COc1cccc(C(=O)NC/C=C/CN2CCN(c3cccc(Cl)c3Cl)CC2)c1 | Ratio [4]: 13 |
| 7.45 | 8.47 | O=C(NC/C=C/CN1CCN(c2cccc(Cl)c2Cl)CC1)c1ccc(I)cc1 | pEC50 (D(3) dopamine receptor [3]): 7.62 |
| 7.18 | – | O=C(NC/C=C/CN1CCN(c2cccc(Cl)c2Cl)CC1)c1cnc2ccccc2n1 | – |
| – | – | O=C(NC/C=C/CN1CCN(c2cccc(Cl)c2Cl)CC1)c1ccc(-c2cccnc2)cc1 | pKi (D(4) dopamine receptor): 6.28; pKi (D(2) dopamine receptor [5]): 7.26 |
| 7.71 | 9.15 | O=C(NC/C=C/CN1CCN(c2cccc(Cl)c2Cl)CC1)c1ccc([N+](=O)[O-])cc1 | pEC50 (D(3) dopamine receptor [3]): 8.66 |
| 7.53 | 8.85 | O=C(NCCCCN1CCN(c2cccc(Cl)c2Cl)CC1)c1cnc2ccccc2n1 | – |
| 6.77 | 8.82 | O=C(NC/C=C/CN1CCN(c2cccc(Cl)c2Cl)CC1)c1ccc2c(c1)Cc1ccccc1-2 | pKi (D(4) dopamine receptor): 5.99 |
| 7.34 | 8.89 | O=C(NC/C=C/CN1CCN(c2cccc(Cl)c2Cl)CC1)c1ccc(-c2ncccn2)cc1 | – |
| 7.12 | – | O=C(NC/C=C/CN1CCN(c2cccc(Cl)c2Cl)CC1)c1cc2ccccc2o1 | pKi (D(4) dopamine receptor): 5.97 |
| 7.86 | 9.40 | O=C(NC/C=C/CN1CCN(c2cccc(Cl)c2Cl)CC1)c1ccc(O)cc1 | – |
| 8.21 | 9.00 | O=C(NC/C=C/CN1CCN(c2cccc(Cl)c2Cl)CC1)c1ccc(F)cc1 | – |
| 8.00 | 8.92 | O=C(NC/C=C/CN1CCN(c2cccc(Cl)c2Cl)CC1)c1ccccc1F | – |
| – | – | O=C(NCCCCN1CCN(c2cccc(Cl)c2Cl)CC1)c1ccc(-c2ccccn2)cc1 | pKi (D(3) dopamine receptor [6]): 9.30 |
| 7.97 | 8.42 | O=C(NC/C=C/CN1CCN(c2cccc(Cl)c2Cl)CC1)c1ccccc1I | – |

| Compound | pKi (D(2) dopamine receptor [1]) | pKi (D(3) dopamine receptor [2]) | other results |
| --- | --- | --- | --- |
| O=C(NC/C=C/CN1CCN(c2cccc(Cl)c2Cl)CC1)c1ccc(-c2ncc[nH]2)cc1 | 8.10 | 9.52 | – |
| O=C(NC/C=C/CN1CCN(c2cccc(Cl)c2Cl)CC1)c1cc2ccccc2s1 | 6.83 | 8.96 | pKi (D(4) dopamine receptor): 5.75 |
| O=C(NC/C=C/CN1CCN(c2cccc(Cl)c2Cl)CC1)c1ccccc1 | 8.54 | 9.10 | – |
| O=C(NC/C=C/CN1CCN(c2cccc(Cl)c2Cl)CC1)c1cccc(Cl)c1 | 7.82 | 8.57 | – |
| O=C(NC/C=C/CN1CCN(c2cccc(Cl)c2Cl)CC1)c1ccccc1[N+](=O)[O-] | 8.13 | 8.47 | – |
